Assay: logP determination by HPLC on a reverse phase column (C18), EEC Directive 79/831 Annex V.A8
Assay type: physicochemical
Conditions: HPLC C18, 43° C.; for logP (pH 2.3): Table 1; for chromatographic logP: reverse phase HPLC column (C18), pH 2.3
Procedure: The specified logP values are determined by HPLC on a reverse phase column (C18) in accordance with EEC Directive 79/831 Annex V.A8. Temperature: 43° C. Eluents for the measurement in the acid range (pH 2.3): 0.1% aqueous phosphoric acid, acetonitrile; linearer gradient of 10% acetonitrile to 90% acetonitrile. Calibration is performed with unbranched alkyl-2-ones (with 3 to 16 carbon atoms) with known logP values (determination of the logP values based on retention times by linear interpolation between two sequential alkyl ketones).

Row | logP (pH 2.3) | chromatographic logP | SMILES
1 | 4.02 |  | CCCC(C)SC(C)c1ccccc1NC(=O)c1cn(C)nc1C(F)(F)F (mixture of isomers) [compound 42]
2 | 3.82 |  | CCCC(C)SC(C)c1ccccc1NC(=O)c1c(C)nn(C)c1F (mixture of isomers) [compound 43]
3 | 4.52 |  | CCCC(C)SC(C)c1ccccc1NC(=O)c1sc(C)nc1C(F)(F)F (mixture of isomers) [compound 44]
4 | 4.14 |  | CCC(C)SC(C)c1ccccc1NC(=O)c1cn(C)nc1C(F)(F)F (mixture of isomers) [compound 45]
5 | 3.38 |  | CCC(C)SC(C)c1ccccc1NC(=O)c1c(C)nn(C)c1F (mixture of isomers) [compound 46]
6 | 4.75 |  | CCCC(C)SC(C)c1ccccc1NC(=O)c1ccccc1I (mixture of isomers) [compound 47]
7 | 4.12 |  | CCC(C)SC(C)c1ccccc1NC(=O)c1sc(C)nc1C(F)(F)F (mixture of isomers) [compound 48]
8 | 4.33 |  | CCC(C)SC(C)c1ccccc1NC(=O)c1ccccc1I (mixture of isomers) [compound 49]
9 | 3.79 |  | CC(C)SC(C)c1ccccc1NC(=O)c1ccccc1Br (racemic) [compound 26]
10 | 3.91 |  | CC(C)SC(C)c1ccccc1NC(=O)c1ccccc1I (racemic) [compound 27]
11 | 3.01 |  | CC(C)SC(C)c1ccccc1NC(=O)c1cn(C)nc1C(F)F (racemic) [compound 28]
12 | 3.55 |  | Cc1nc(C(F)F)c(C(=O)Nc2ccccc2C(C)SC(C)C)s1 (racemic) [compound 29]
13 | 3.76 |  | CC(C)SC(C)c1ccccc1NC(=O)C1=C(C(F)(F)F)OCCS1 (racemic) [compound 30]
14 | 2.17 |  | COC(C)c1ccccc1NC(=O)c1c(C)nn(C)c1F (racemic) [compound 31]
15 | 2.46 |  | COC(C)c1ccccc1NC(=O)c1cn(C)nc1C(F)(F)F (racemic) [compound 32]
16 | 3.56 |  | COC(C)c1cc(Cl)ccc1NC(=O)c1ccccc1C(F)(F)F (racemic) [compound 33]
17 | 2.99 |  | COC(C)c1ccccc1NC(=O)c1ccccc1C(F)(F)F (racemic) [compound 34]
18 | 1.06 |  | CC(C)NC(C)c1ccccc1NC(=O)c1cn(C)nc1C(F)(F)F (racemic) [compound 41]
19 | 4.29 |  | CCCC(C)SC(C)c1ccccc1NC(=O)c1cn(C)cc1C(F)(F)F (racemic) [compound 109]
20 | 4.49 |  | CCCC(C)SC(C)c1ccccc1NC(=O)C1=C(C(F)(F)F)OCCS1 (racemic) [compound 110]
21 | 4.38 |  | CCCC(C)SC(C)c1ccccc1NC(=O)c1c(C(F)(F)F)nn(C)c1F (racemic) [compound 111]
22 | 4.76 |  | CCCC(C)SC(C)c1ccccc1NC(=O)c1ccccc1C (racemic) [compound 112]
23 | 4.07 |  | CCCC(C)SC(C)c1ccccc1NC(=O)c1c(C)nn(C)c1Cl (racemic) [compound 113]
24 | 3.99 |  | CCC(C)SC(C)c1ccccc1NC(=O)c1c(C(F)(F)F)nn(C)c1F (racemic) [compound 121]
25 | 2.38 |  | Cc1sccc1C(=O)Nc1ccccc1C(C)S(=O)(=O)C(C)C (centres unmarked) [Compound No. 4]
26 | 2.53 |  | CC(C)S(=O)(=O)C(C)c1ccccc1NC(=O)c1ccccc1C(F)(F)F (centres unmarked) [Compound No. 6]

Row | logP (pH 2.3) | chromatographic logP | SMILES
27 |  | 0.58 | Cc1nn(C)c(F)c1C(=O)Nc1ccccc1C(C)NC(C)C (centres unmarked) [Compound No. 40, 5-fluoro-N-{2-[1-(isopropylamino)ethyl]phenyl}-1,3-dimethyl-1H-pyrazole-4-carboxamide]
28 |  | 2.85 | CC(C)OCc1ccccc1NC(=O)c1cn(C)nc1C(F)(F)F [Compound No. 60, N-[2-(isopropoxymethyl)phenyl]-1-methyl-3-(trifluoromethyl)-1H-pyrazol-4-carboxamide]
29 |  | 2.45 | CC(C)SC(C)c1ccccc1N (centres unmarked) [III-1, 2-[1-(isopropylthio)ethyl]aniline]
30 |  | 1.28 | CC(C)S(=O)(=O)C(C)c1ccccc1N (centres unmarked) [III-2, 2-[1-(isopropylsulfonyl)ethyl]aniline]
31 |  | 1.94 | CC(C)SCc1ccccc1N [III-3, 2-[1-(isopropylthio)methyl]aniline]
32 |  | 0.05 | CC(C)NC(C)c1ccccc1N (centres unmarked) [III-4, 2-[1-(isopropylamino)ethyl]aniline]
33 |  | 1.55 | Cn1cc(C(=O)Nc2ccccc2CO)c(C(F)(F)F)n1 [IV-1, N-[2-(hydroxymethyl)phenyl]-1-methyl-3-(trifluoromethyl)-1H-pyrazole-4-carboxamide]
34 |  | 1.63 | CC(C)S(=O)(=O)Cc1ccccc1[N+](=O)[O-] [VI-3, 1-[(isopropylsulfonyl)methyl]-2-nitrobenzene]
35 |  | 3.89 | CC(C)SC(C)c1ccccc1[N+](=O)[O-] (centres unmarked) [VII-1, 1-[1-(isopropylthio)ethyl]-2-nitrobenzene]
36 |  | 3.28 | CC(C)SCc1ccccc1[N+](=O)[O-] [VII-2, 1-[1-(isopropylthio)methyl]-2-nitrobenzene]
37 |  | 0.55 | CC(C)NC(C)c1ccccc1[N+](=O)[O-] (centres unmarked) [VII-5, N-[1-(2-nitrophenyl)ethyl]propane-2-amine]
38 |  | 2.87 | CC(Cl)c1ccccc1[N+](=O)[O-] (centres unmarked) [VIII-1, 1-(1-chloroethyl)-2-nitrobenzene]
39 |  | 1.49 | CC(O)c1ccccc1[N+](=O)[O-] (centres unmarked) [XI-1, 1-(2-nitrophenyl)ethanol]
40 | 2.18 |  | COCc1ccccc1NC(=O)C1=C(C)OCC1 [compound 1]
41 | 2.07 |  | CC1=C(C(=O)Nc2ccccc2C(C)S(=O)(=O)C(C)C)SCCO1 (centres unmarked) [compound 2]
42 | 2.30 |  | CC(C)S(=O)(=O)C(C)c1ccccc1NC(=O)c1ccccc1Br (centres unmarked) [compound 3]
43 | 1.68 |  | CC(C)S(=O)(=O)C(C)c1ccccc1NC(=O)c1cccnc1Cl (centres unmarked) [compound 5]
44 | 2.43 |  | CC(C)S(=O)(=O)C(C)c1ccccc1NC(=O)c1ccccc1I (centres unmarked) [compound 7]
45 | 2.21 |  | Cc1occc1C(=O)Nc1ccccc1C(C)S(=O)(=O)C(C)C (centres unmarked) [compound 8]
46 | 2.35 |  | Cc1nc(C(F)(F)F)c(C(=O)Nc2ccccc2C(C)S(=O)(=O)C(C)C)s1 (centres unmarked) [compound 9]
47 | 2.39 |  | CC(C)S(=O)(=O)C(C)c1ccccc1NC(=O)C1=C(C(F)(F)F)OCCS1 (centres unmarked) [compound 10]
48 | 1.66 |  | Cc1nn(C)c(F)c1C(=O)Nc1ccccc1C(C)S(=O)(=O)C(C)C (centres unmarked) [compound 11]
49 | 2.23 |  | CC(C)S(=O)(=O)C(C)c1ccccc1NC(=O)c1ccccc1Cl (centres unmarked) [compound 12]
50 | 2.16 |  | Cc1nc(C(F)F)c(C(=O)Nc2ccccc2C(C)S(=O)(=O)C(C)C)s1 (centres unmarked) [compound 13]
51 | 1.46 |  | Cc1nn(C)cc1C(=O)Nc1ccccc1C(C)S(=O)(=O)C(C)C (centres unmarked) [compound 14]
52 | 2.09 |  | CC(C)S(=O)(=O)C(C)c1ccccc1NC(=O)c1cn(C)nc1C(F)(F)F (centres unmarked) [compound 15]

Row | logP (pH 2.3) | chromatographic logP | SMILES
53 | 1.86 |  | CC(C)S(=O)(=O)C(C)c1ccccc1NC(=O)c1cn(C)nc1C(F)F (centres unmarked) [compound 16]
54 | 2.53 |  | Cc1nn(C)cc1C(=O)Nc1ccccc1C(C)SC(C)C (centres unmarked) [compound 17]
55 | 3.27 |  | CC(C)SC(C)c1ccccc1NC(=O)c1cn(C)nc1C(F)(F)F (centres unmarked) [compound 18]
56 | 2.98 |  | Cc1nn(C)c(F)c1C(=O)Nc1ccccc1C(C)SC(C)C (centres unmarked) [compound 19]
57 | 4.03 |  | Cc1sccc1C(=O)Nc1ccccc1C(C)SC(C)C (centres unmarked) [compound 20]
58 | 3.74 |  | CC(C)SC(C)c1ccccc1NC(=O)c1ccccc1Cl (centres unmarked) [compound 21]
59 | 2.95 |  | CC(C)SC(C)c1ccccc1NC(=O)c1cccnc1Cl (centres unmarked) [compound 22]
60 | 3.90 |  | CC(C)SC(C)c1ccccc1NC(=O)c1ccccc1C(F)(F)F (centres unmarked) [compound 23]
61 | 3.71 |  | Cc1occc1C(=O)Nc1ccccc1C(C)SC(C)C (centres unmarked) [compound 24]
62 | 3.73 |  | Cc1nc(C(F)(F)F)c(C(=O)Nc2ccccc2C(C)SC(C)C)s1 (centres unmarked) [compound 25]
63 | 3.27 |  | Cc1nc(C(F)F)c(C(=O)Nc2ccccc2CSC(C)C)s1 [compound 35]
64 | 3.05 |  | CC(C)SCc1ccccc1NC(=O)c1cn(C)nc1C(F)(F)F [compound 36]
65 | 3.48 |  | CC(C)SCc1ccccc1NC(=O)C1=C(C(F)(F)F)OCCS1 [compound 37]
66 | 2.76 |  | CC(C)SCc1ccccc1NC(=O)c1cn(C)nc1C(F)F [compound 38]
67 | 3.68 |  | CC(C)SCc1ccccc1NC(=O)c1ccccc1I [compound 39]
68 | 3.15 |  | O=C(Nc1ccccc1COC(=O)C(Cl)Cl)c1ccccc1C(F)(F)F [compound 50]
69 | 2.39 |  | Cc1nn(C)c(F)c1C(=O)Nc1ccccc1COC(=O)C(C)C [compound 51]
70 | 2.36 |  | Cc1nn(C)c(F)c1C(=O)Nc1ccccc1COC(=O)C(Cl)Cl [compound 52]
71 | 3.24 |  | CC(C)C(=O)OCc1ccccc1NC(=O)c1ccccc1C(F)(F)F [compound 53]
72 | 2.51 |  | CC(C)OCc1ccccc1NC(=O)c1ccccc1C(F)(F)F [compound 54]
73 | 2.74 |  | CC(C)C(=O)OCc1ccccc1NC(=O)c1cn(C)nc1C(F)(F)F [compound 55]
74 | 2.69 |  | Cn1cc(C(=O)Nc2ccccc2COC(=O)C(Cl)Cl)c(C(F)(F)F)n1 [compound 56]
75 | 2.38 |  | CC(C)C(=O)OCc1ccccc1NC(=O)c1cccnc1Cl [compound 57]
76 | 2.38 |  | O=C(Nc1ccccc1COC(=O)C(Cl)Cl)c1cccnc1Cl [compound 58]
77 | 3.49 |  | CC(C)C(=O)OCc1ccccc1N(C(=O)c1cccnc1Cl)C(=O)C(C)C [compound 59]
